Reference: patent publication US20150017673A1, “COMPOSITIONS AND METHODS FOR DRUG-SENSITIZATION OR INHIBITION OF A CANCER CELL” (priority 2012, published 2015)

Legend:
[1] = tested on: multi-drug resistant sarcoma cell line MES-SA-Dx5; experiment: Cell growth assay on MES-SA-Dx5 cells; assay type: cell-based; conditions: MES-SA-Dx5, uterus sarcoma
Procedure: Compositions were tested on CHOP-resistant G3 NHL cells that had been cultivated in RPMI medium for five days. Prior to assay, the cells were counted by haemocytometer and cell concentration standardized to 625,000 cells/ml. Test drugs were solubilized in 100% DMSO and then diluted to final assay concentration with 0.1M phosphate buffered saline (PBS) and a final DMSO concentration of 0.5%. Cells were added to assay plates containing the test drugs (rifabutin+148 ng/ml, 74 ng/ml, 37 ng/ml, or 0 ng/ml doxorubicin) and allowed to incubate for 96 hours at 37° C. and 5% CO2. The metabolic dye rezasurin was added to the wells of the assay plate at a final concentration of 20 μg/ml and the plates were incubated for an additional 24 hours. The plates were then read in a BMG Polarstar plate reader at wavelength (573-605) and the data plotted as OD versus increasing dilutions (i.e. decreasing total amounts) of rifabutin derivative concentration.
In these experiments, the following cell lines were used: CHOP-resistant NHL cell line G3, CHOP-sensitive NHL cell line CRL2631, the multi-drug resistant sarcoma cell line MES-SA-Dx5; multi-drug-resistant breast cancer cell line MDA-MB-231, multi-drug resistant ovarian carcinoma cell line SK-OV3, multi-drug resistant ovarian cancer cell line NCI/ADR-RES, drug-sensitive ovarian cancer cell line OVCAR-5, and multi-drug resistant ovarian cancer cell line OVCAR-3.
Additional cell lines used include: ovarian cancer OVCAR-8, T lymphoblastoid leukemia MOLT-4, dexamethasone-resistant multiple myeloma MM.1R, myeloid leukemia cells HL-60, osteosarcoma cells U-2 OS, and myeloma RPMI 8226.

[2] = tested on: human ovarian cancer cell line SK-OV-3; experiment: SK-OV-3 xenograft efficacy study in SCID mice; assay type: in vivo
Procedure: In a fifth efficacy study, we generated xenografts of the human ovarian cancer cell line SK-OV-3, a cell line considered doxorubicin-resistant, by bilateral subcutaneous (s.c.) injection of 1×10^7 tumor cells to establish localized tumors in 6-8 week old female SCID mice. Using rifabutin co-administered with DOX, in vivo efficacy was assessed. […] Cycles of Dox or Dox+rifabutin were given once a week for 4 cycles. This cyclical dosing scheme of mouse models has precedent in the literature and is intended to mimic the cycles of DOXIL® (Centocor Ortho Biotech Products, LP, Raritan, N.J.) given in the clinic. Rifabutin was administered on the day of each DOX treatment and by gavage. Mouse body weight and tumor size were monitored.

[3] = tested on: CHOP-sensitive CRL2631 cells; experiment: Prevention of the emergence of CHOP resistance; assay type: cell-based, human; conditions: one week CHOP+rifabutin, half (0.5×) and full (1×) doses of CHOP
Procedure: The ability of rifabutin to prevent the emergence of CHOP-resistance was determined by treating CHOP-sensitive CRL2631 cells with either CHOP alone or CHOP+rifabutin for one week. Following treatment, the cells were grown in the absence of CHOP, then their sensitivity to CHOP was assayed by retreatment with CHOP, followed by counting of viable cells. […] A 1×CHOP dose in this experiment corresponds to final concentrations of the following components: 0.83 μM 4-hydroxycyclophosphamide [4HC, a pre-activated form of cyclophosphamide], 0.057 μM doxorubicin, 0.01 μM vincristine, and 0.186 μM prednisone.

[4] = tested on: ROS in G3 lymphoma cells; experiment: Intracellular ROS (CellROX, flow cytometry) in G3 cells; assay type: cell-based, human; conditions: 10 uM rifabutin over time
[5] = tested on: G3 cells; experiment: Collagen invasion 3D assay, G3 cells; assay type: cell-based, human; conditions: 10 uM Rifabutin in collagen matrix, 24 hours
Procedure: The effects of rifabutin on cell invasion was assessed in a collagen invasion 3D assay. Increased interest in the use of 3D culture systems has been motivated by accumulating evidence that 3D models better reflect the microenvironment of tumors and metastases and more accurately predict therapeutic response in vivo compared with conventional 2D assays. A collagen invasion 3D assay allows the rapid and quantitative assessment of invasiveness and a means to screen for drugs which alter the invasive phenotype of tumor cells.
The CHOP-resistant G3 cell line is much more invasive in a collage invasion 3D assay than its CHOP-sensitive parent cell line (CRL2631). Collagen matrices (1 mg/ml) were prepared as previously described in Su, S. C., et al., Molecular profile of endothelial invasion of three-dimensional collagen matrices: insights into angiogenic sprout induction in wound healing. Am. J. Physiol. […] Cell invasion density was quantified by counting fixed cultures under transmitted light using an Olympus CK2 inverted microscope equipped with eyepieces displaying a 10×10 ocular grid. For each condition, four random fields were selected and the number of invading cells per high power field (HPF) was counted manually at 10× magnification, corresponding to 1 mm^2 area. […]

[6] = tested on: G3 cells; experiment: Modified Boyden chamber invasion assay, G3 cells; assay type: cell-based, human; conditions: 10 μM rifabutin 24 hours; DMSO 170,374
Procedure: (§1) A modified Boyden chamber assay was used as an independent method to evaluate rifabutin's ability to suppress invasion/metastasis. […] Cell invasion was assessed with a Chemicon QCM Collagen Invasion Assay (Millipore). The assay is a 96-well plate assay wherein each well is equipped with a suspended insert. Inserts contain an 8-micron membrane coated with a thin layer of polymerized collagen. Invading cells migrate through the collagen layer and attach to the bottom of the membrane. Cells were detached from the membrane and lysed prior to detection via CyQuant dye. Fluorescence intensity is proportional to number of invading cells. […] In CRL2631 cells RLU decreases from 39,356 to 27,432 RLU in the presence of rifabutin (p<0.05).

[7] = tested on: CRL2631 cells; experiment: Modified Boyden chamber invasion assay, CRL2631 cells; assay type: cell-based, human; conditions: 10 μM rifabutin 24 hours; DMSO 39,356
Procedure: as §1

[8] = cited from earlier work

CO[C@H]1/C=C/O[C@@]2(C)Oc3c(C)c(O)c4c(c3C2=O)C2=NC3(CCN(CC(C)C)CC3)NC2=C(NC(=O)/C(C)=C\C=C\[C@H](C)[C@H](O)[C@@H](C)[C@@H](O)[C@@H](C)[C@H](OC(C)=O)[C@@H]1C)C4=O [Rifabutin, rifabutin]
Magnitude of potentiation in combination with doxorubicin [1]: ++ (potentiation between 2.1 to 5 fold increase)
average tumor volume ([2]; after 19 days treatment, DOX 3.3 mg/kg i.v. + rifabutin 25 mg/kg oral weekly): 348 mm^3
reduction in tumor size versus DOX-only ([2]; after 19 days, DOX 3.3 mg/kg i.v. + rifabutin 25 mg/kg oral): 40%
emergence of CHOP-resistant cells [3]: significantly repress the emergence of CHOP-resistant cells
ROS induction [4]: rapidly induces ROS
reduction of invasion [5]: up to 30%
relative fluorescence (invading cells) [6]: 114,395 RLU
relative fluorescence (invading cells) [7]: 27,432 RLU
initial half-life ([8]; biphasic plasma elimination): approximately 4 hours
mean terminal half-life ([8]; biphasic plasma elimination): 45 (±17) hours
mean (±SD) peak plasma concentration (Cmax) ([8]; single oral dose of 300 mg): 375 (±267) ng/mL
